Assay results from EP0112633A2, “Novel 5-thiaprostaglandin, process for production thereof, and pharmaceutical use thereof” (TEIJIN LIMITED, priority 1982, dated 1984).
≈ marks a conversion by molar mass, not a printed value. Read-outs that look alike come from different tables or passages of the source. Blank lines part the entries; values can stand above or below the compound they belong to.

What was measured:
platelet aggregation = experiment: In vitro inhibition of ADP-induced platelet aggregation in platelet-rich plasma (aggregometer); format: cell-based, Japanese domestic white male rabbits
Method: in vitro inhibitory activity of platelet aggregation:-
The in vitro platelet aggregation imhibiting activity of the compounds of the invention were examined by using rabbits. Blood was withdrawn from the ear vein of Japanese domestic white male rabbits weighing 2.5 to 3.5 kg. A mixture of a 3.8% trisodium citrate solution and the blood in a ratio of 1:9 was centrifuged at a speed of 1000 rpm for 10 minutes. The upper layer was separated as platelet- rich plasma (PRP). The lower layer was further centrifuged at a speed of 28000 rpm for 10 minutes. The upper layer was separated as platelet-poor plasma (PPP). The number of platelets was adjusted to 6 x 10^5/µℓ to 7 x 10^5/µℓ by diluting the PRP with PPP. 25 microliters of the test compounds prepared as shown below was added in an amount of 25 to 250 microliters of PRP after the adjustment, and the mixture was pre-incubated at 37°C for 2 minutes, and then 10 µM (final) of ADP was added. By using an aggregometer, changes in transmission were recorded.
The drug was dissolved in ethanol to a concentration of 10 mg/mt, and successively diluted with phosphate buffer (pH 7.4) prior to use.
The rate of inhibition of platelet aggregation was determined from the following equation. [formula] • T: the transmittance of the system containing the phosphate buffer, • T : the transmittance of the system to which the test drug was added.
The minumum concentration of the drug which inhibited more than 50% of platelet aggregation was shown as an IC50 value.

L1210 leukemia cells = experiment: Inhibition of proliferation of L1210 leukemia cells (trypan blue count of surviving cells after 4 days); format: cell-based; conditions: RPMI medium with 10% FCS, 37°C, ratio of proliferation against 0.1% ethanol control
Method: Measurement of the action of inhibiting proliferation of […] leukemia cell:-
L1210 leukemia cells were added to an RPMI medium containing 10% FCS (fetal calf serum), and the concentration of the cells was adjusted to 1 × 10^5 cells/ml. […] Prior to use, the final concentration of the ethanol solution was adjusted to less than 0.1%, and it was added to the culture medium. The culture medium was then maintained at 37°C in a stationary condition for 4 days. After the cultivation, the number of surviving cells was measured by dyeing with trypan flue. As a control, 0.1% ethanol was used. A dose-reaction curve was plotted from the ratios of proliferation against the control, and IC50 was determined.

blood pressure = experiment: Hypotensive activity by intravenous injection under anesthesia; format: in vivo, Male wister rats; conditions: anesthetized rats, i.v.; dosage which caused a 20% lowering of the mean blood pressure
Method: Measurement of the hypotensive activity:-
The actions of the 5-thiaprostaglandin of the invention on the blood pressure was examined by intravenous injection under anesthesia.
Male wister rats weighing about 250 g were used. Urethane (500 mg/kg) and a-chloralose (100 mg/kg) were intraperitoneally administered to the rats. The rats were anesthetized and fixed in place.
Each of the test compounds was dissolved in a small amount of ethanol and diluted with physiological saline to adjust the final ethanol concentration to not more than 5%. The solution was intravenously injected into the rats through a catheter inserted into the femoral vein.
The blood pressure of the rats was measured by a pressure transducer through a catheter inserted into the carotid artery of the rats.
The action of the test compound on the blood pressure was expressed as the dosage (ED20, u/kg) of the test compound which caused a 20% lowering of the mean blood pressure before administration of the compound.

ethanol ulcer = experiment: Ethanol ulcer test (inhibitory activity on ethanol ulcer); format: in vivo, SD-strain rats; conditions: rats; for Ulcer index (mm): 75% ethanol 30 min later, stomach examined 1 h later; for ED50: p.o., ethanol ulcer
Method: Measurement of inhibitry activity on ethanol ulcer:- An ethanol ulcer test was carried out by the following processure. SD-strain rats (body weight 200 to 220 g; 7 weeks old) were fasted for 24 hours, and a solution of each of the test compounds in physiological saline buffered with phosphate buffer at pH 7.5 was orally administered. Thirty minutes after the administration, 75% ethanol was orally administered in a dose of […]. One hour later, the abdomen was incised to isolate the stomach. […] The total of these lengths was defined as the ulcer index. A control group was given physiological saline buffered with phosphate buffer (pH 7.5) and 75% ethanol.

IC50 (platelet aggregation; Oryctolagus cuniculus, rabbit PRP, 10 µM (final) ADP, minimum concentration which inhibited more than 50% of platelet aggregation, read-out: IC50): 0.36 µg/mL (≈ 0.868 µM)
Compound: CCCC[C@@H](C)C[C@H](O)/C=C/[C@H]1[C@H](O)CC(=O)[C@@H]1CCSCCCC(=O)OC [17(R),20-dimethyl-5-thiaprostaglandin E1 methyl ester]

Compound: CCCCC[C@H](O)/C=C/[C@H]1C=CC(=O)/C1=C/CSCCCC(=O)OC [(7E)-Δ^7-5-thiaprostaglandin A1 methyl ester]
IC50 (L1210 leukemia cells; Mus musculus, 96 h, read-out: IC50): 0.2 µg/mL

Compound: CCCCCC(O)C=CC1C=CC(=O)C1=CCSCCCC(=O)OC (centres unmarked) [12-epimer of (7E)-Δ^7-5-thiaprostaglandin A1 methyl ester]
IC50 (L1210 leukemia cells): 0.3 µg/mL

IC50 (platelet aggregation; rabbit PRP, 10 µM (final) ADP, minimum concentration which inhibited more than 50% of platelet aggregation): 0.33 µg/mL
Compound: 17(S),20-dimethyl-5-thiaprostaglandin E1 methyl ester
ED20 (blood pressure): 2.7 µg/kg | Ulcer inhibiting rate (%) (ethanol ulcer; p.o. 0.3 µg/kg): 46.8% | Ulcer index (mm) (ethanol ulcer; p.o. 0.3 µg/kg): 18.4 ±4.3 mm | Ulcer inhibiting rate (%) (ethanol ulcer; p.o. 1 µg/kg): 97.7% | Ulcer index (mm) (ethanol ulcer; p.o. 1 µg/kg): 0.8 ±0.6 mm | Ulcer inhibiting rate (%) (ethanol ulcer; p.o. 3 µg/kg): 100% | Ulcer index (mm) (ethanol ulcer; p.o. 3 µg/kg): 0 mm | ED50 (ethanol ulcer): 0.35 µg/kg

Compound: 5-thiaprostaglandin E1 methyl ester
IC50 (L1210 leukemia cells): 0.6 µg/mL

Compound: (7E)-Δ^7-5-thiaprostaglandin E1 methyl ester and its 15-epimer [A mixture of (7E)-Δ^7-5-thiaprostaglandin E1 methyl ester of its 15-epimer]
IC50 (L1210 leukemia cells): 0.4 µg/mL

IC50 (platelet aggregation; Oryctolagus cuniculus, Platelet, in vitro, ADP 10 µM (printed "ADPlOpM"), read-out: inhibiting platelet aggregation activity (IC50)): 0.03 µg/mL (≈ 0.0846 µM)
Compound: CCCCC[C@H](O)/C=C/[C@H]1[C@H](O)CC(=O)[C@@H]1CCCCCCC(=O)O [Prostaglandin E1, reference compound]
inhibition at 0.003 mg/kg (ethanol ulcer; Rattus norvegicus, po, p.o. 3 µg/kg, read-out: Ulcer inhibiting rate (%)): 50% | inhibition at 0.01 mg/kg (ethanol ulcer; Rattus norvegicus, po, p.o. 10 µg/kg, read-out: Ulcer inhibiting rate (%)): 96.2% | ED50 (ethanol ulcer; Rattus norvegicus, po, read-out: ED50): 3 µg/kg | Ulcer index (mm) (ethanol ulcer; p.o. 3 µg/kg): 17.1 ±5.5 mm | Ulcer index (mm) (ethanol ulcer; p.o. 10 µg/kg): 1.3 ±0.8 mm
